Results on 13 molecules are retold here after PubChem BioAssay AID260 (DTP/NCI, 2004).

The subject of the experiment is CD2F1 mice, intracerebral L1210 leukemia, survival T/C. As to the kind of experiment: NCI In Vivo Anticancer Drug Screen. Data for tumor model L1210 Leukemia (intracerebral) in CD2F1 (CDF1) mice. The note with it: higher = longer survival. The procedure:
The antitumor activity of compounds was measured in mice bearing transplantable tumors. Survival or tumor size were measured and the results are expressed as the measurement made in the treated group (T) divided by the measurement made in the vehicle treated control group (C). The tumor model used in this assay is L1210 Leukemia (intracerebral) in CD2F1 (CDF1) mice

Structures are written as SMILES. “And” between values parts separate entries of the source, which are not always exact repeats. Identical values can stand only once. Inconclusive results and toxic doses are left out.

On to `CCC(=O)O[C@H]1CC[C@H]2[C@@H]3CCC4=CC(=O)CC[C@]4(C)[C@H]3CC[C@]12C`, for which the T/C is, setting by setting: (endpoint: median survival time, dose: 8.0 mg/kg/injection, schedule: Q01DX009 (ip), vehicle: saline with Tween-80) 121 % of control; (endpoint: median survival time, dose: 8.0 mg/kg/injection, schedule: Q01DX009 (ip), vehicle: saline) 109 % of control; (endpoint: median survival time, dose: 16.0 mg/kg/injection, schedule: Q01DX009 (ip), vehicle: saline with Tween-80) 110 % of control; (endpoint: median survival time, dose: 16.0 mg/kg/injection, schedule: Q01DX009 (ip), vehicle: saline) 102 % of control; (endpoint: median survival time, dose: 32.0 mg/kg/injection, schedule: Q01DX009 (ip), vehicle: saline with Tween-80) 118 % of control; (endpoint: median survival time, dose: 32.0 mg/kg/injection, schedule: Q01DX009 (ip), vehicle: saline) 104 % of control. The T/C is, setting by setting: (endpoint: median survival time, dose: 64.0 mg/kg/injection, schedule: Q01DX009 (ip), vehicle: saline with Tween-80) 118 % of control; (endpoint: median survival time, dose: 128.0 mg/kg/injection, schedule: Q01DX009 (ip), vehicle: saline with Tween-80) 110 % of control; (endpoint: median survival time, dose: 128.0 mg/kg/injection, schedule: Q01DX009 (ip), vehicle: saline) 224 % of control; (endpoint: median survival time, dose: 256.0 mg/kg/injection, schedule: Q01DX009 (ip), vehicle: saline with Tween-80) 101 % of control; (endpoint: median survival time, dose: 256.0 mg/kg/injection, schedule: Q01DX009 (ip), vehicle: saline) 120 % of control; (endpoint: median survival time, dose: 512.0 mg/kg/injection, schedule: Q01DX009 (ip), vehicle: saline with Tween-80) 105 % of control. Also, the T/C (endpoint: median survival time, dose: 512.0 mg/kg/injection, schedule: Q01DX009 (ip), vehicle: saline) is 116 % of control.
As for `Nc1nc(=S)c2ncn(C3CC(O)C(CO)O3)c2[nH]1` (stereo not given), the T/C (endpoint: mean survival time, dose: 2.5 mg/kg/injection, schedule: Q01DX001 (ip), vehicle: steriod suspending solution) was 114 % of control; the T/C (endpoint: mean survival time, dose: 10.0 mg/kg/injection, schedule: Q01DX001 (ip), vehicle: steriod suspending solution) was 118 % of control; the T/C (endpoint: mean survival time, dose: 20.0 mg/kg/injection, schedule: Q01DX001 (ip), vehicle: steriod suspending solution) is 120 % of control.
For the molecule `O=C(Nc1ccccc1)c1c(O)[nH]c(=S)[nH]c1=O`, the T/C (endpoint: median survival time, dose: 12.5 mg/kg/injection, schedule: Q01DX009 (ip), vehicle: saline with Tween-80) was 94 % of control; the T/C (endpoint: median survival time, dose: 25.0 mg/kg/injection, schedule: Q01DX009 (ip), vehicle: saline with Tween-80) was 98 % of control; the T/C (endpoint: median survival time, dose: 50.0 mg/kg/injection, schedule: Q01DX009 (ip), vehicle: saline with Tween-80) is 113 % of control.
Regarding `COc1cc2c(c3c1c(=O)c1ccccc1n3C)C=CC(C)(C)O2`, for the setting “endpoint: median survival time, dose: 128.0 mg/kg/injection, schedule: Q01DX005 (ip), vehicle: Klucel (hydroxypropylcellulose) (HPC)”, the T/C was 108 % of control.
With `O=S1(=O)CS(=O)(=O)OCCO1`, the T/C reads like this: (endpoint: median survival time, dose: 3.13 mg/kg/injection, schedule: Q01DX009 (ip), vehicle: Klucel (hydroxypropylcellulose) (HPC)) 122 % of control; (endpoint: median survival time, dose: 12.5 mg/kg/injection, schedule: Q01DX009 (ip), vehicle: Klucel (hydroxypropylcellulose) (HPC)) 170 % of control; (endpoint: median survival time, dose: 25.0 mg/kg/injection, schedule: Q01DX009 (ip), vehicle: Klucel (hydroxypropylcellulose) (HPC)) 182 % of control; (endpoint: median survival time, dose: 50.0 mg/kg/injection, schedule: Q01DX009 (ip), vehicle: Klucel (hydroxypropylcellulose) (HPC)) 200 % of control.
Consider `O=NN(CCCl)C(=O)NC1CCCCC1`, for which the T/C reads like this: (endpoint: median survival time, dose: 4.0 mg/kg/injection, schedule: Q01DX001 (ip), vehicle: other) 112 % of control; (endpoint: median survival time, dose: 8.0 mg/kg/injection, schedule: Q01DX001 (ip), vehicle: saline + alcohol) 106 % of control; (endpoint: median survival time, dose: 16.0 mg/kg/injection, schedule: Q01DX001 (ip), vehicle: other) 177 % of control; (endpoint: median survival time, dose: 16.0 mg/kg/injection, schedule: Q01DX001 (ip), vehicle: saline + alcohol) 118 % of control; (endpoint: median survival time, dose: 32.0 mg/kg/injection, schedule: Q01DX001 (ip), vehicle: other) 415 % of control; (endpoint: median survival time, dose: 64.0 mg/kg/injection, schedule: Q01DX001 (ip), vehicle: saline + alcohol) 389 % of control. In addition, the T/C is 168 % of control (endpoint: median survival time, dose: 128.0 mg/kg/injection, schedule: Q01DX001 (ip), vehicle: saline + alcohol) and 90 % of control (endpoint: median survival time, dose: 256.0 mg/kg/injection, schedule: Q01DX001 (ip), vehicle: saline + alcohol).
Regarding `N#[N+]c1nc[nH]c1C(N)=O`, the T/C is, setting by setting: (endpoint: median survival time, dose: 2.0 mg/kg/injection, schedule: Q01DX005 (ip), vehicle: saline) 112 % of control; (endpoint: median survival time, dose: 4.0 mg/kg/injection, schedule: Q01DX005 (ip), vehicle: saline) 105 % of control; (endpoint: median survival time, dose: 8.0 mg/kg/injection, schedule: Q01DX005 (ip), vehicle: saline) 107 % of control; (endpoint: median survival time, dose: 16.0 mg/kg/injection, schedule: Q01DX005 (ip), vehicle: saline) 105 % of control; (endpoint: median survival time, dose: 32.0 mg/kg/injection, schedule: Q01DX005 (ip), vehicle: saline) 105 % of control; (endpoint: median survival time, dose: 64.0 mg/kg/injection, schedule: Q01DX005 (ip), vehicle: saline) 101 % of control.
In the case of `CN=NNc1nc[nH]c1C(N)=O`, the T/C (endpoint: median survival time, dose: 16.0 mg/kg/injection, schedule: Q01DX005 (ip), vehicle: saline with Tween-80) is 107 % of control; the T/C (endpoint: median survival time, dose: 32.0 mg/kg/injection, schedule: Q01DX005 (ip), vehicle: saline with Tween-80) was 101 % of control; the T/C (endpoint: median survival time, dose: 64.0 mg/kg/injection, schedule: Q01DX005 (ip), vehicle: saline with Tween-80) was 112 % of control; the T/C (endpoint: median survival time, dose: 128.0 mg/kg/injection, schedule: Q01DX005 (ip), vehicle: saline with Tween-80) is 107 % of control; the T/C (endpoint: median survival time, dose: 256.0 mg/kg/injection, schedule: Q01DX005 (ip), vehicle: saline with Tween-80) is 86 % of control.
As to `CC(=O)NNC(=O)c1ccccn1`, the T/C (endpoint: median survival time, dose: 100.0 mg/kg/injection, schedule: Q01DX005 (ip), vehicle: Klucel (hydroxypropylcellulose) (HPC)) was 103 % of control and the T/C (endpoint: median survival time, dose: 200.0 mg/kg/injection, schedule: Q01DX005 (ip), vehicle: Klucel (hydroxypropylcellulose) (HPC)) is 105 % of control.
As to `Nc1n[nH]c(N)n1`, the T/C reads like this: (endpoint: mean survival time, dose: 512.0 mg/kg/injection, schedule: Q12HX018 (ip), vehicle: saline) 96 % of control; (endpoint: mean survival time, dose: 1024.0 mg/kg/injection, schedule: Q12HX018 (ip), vehicle: saline) 107 % of control; (endpoint: mean survival time, dose: 2048.0 mg/kg/injection, schedule: Q12HX018 (ip), vehicle: saline) 110 % of control; (endpoint: median survival time, dose: 128.0 mg/kg/injection, schedule: Q01DX005 (ip), vehicle: saline) 107 % of control and 116 % of control; (endpoint: median survival time, dose: 256.0 mg/kg/injection, schedule: Q01DX005 (ip), vehicle: saline) 108 % of control and 111 % of control; (endpoint: median survival time, dose: 512.0 mg/kg/injection, schedule: Q01DX005 (ip), vehicle: saline) 120 % of control and 115 % of control. Besides, for the setting “endpoint: median survival time, dose: 1024.0 mg/kg/injection, schedule: Q01DX005 (ip), vehicle: saline”, the T/C was 119 % of control.
As for `Nc1nc(F)nc2c1ncn2C1OC(COP(=O)(O)O)C(O)C1O` (stereo not given), the T/C reads like this: (endpoint: median survival time, dose: 60.0 mg/kg/injection, schedule: Q01DX009 (ip), vehicle: saline) 109 % of control; (endpoint: median survival time, dose: 90.0 mg/kg/injection, schedule: Q01DX009 (ip), vehicle: saline) 106 % of control; (endpoint: median survival time, dose: 200.0 mg/kg/injection, schedule: Q01DX009 (ip), vehicle: saline) 116 % of control.
In the case of `CN(C)N=Nc1ccccc1Cl`, the T/C reads like this: (endpoint: median survival time, dose: 8.0 mg/kg/injection, schedule: Q01DX005 (ip), vehicle: saline + alcohol) 98 % of control; (endpoint: median survival time, dose: 16.0 mg/kg/injection, schedule: Q01DX005 (ip), vehicle: saline + alcohol) 106 % of control; (endpoint: median survival time, dose: 32.0 mg/kg/injection, schedule: Q01DX005 (ip), vehicle: saline + alcohol) 102 % of control; (endpoint: median survival time, dose: 64.0 mg/kg/injection, schedule: Q01DX005 (ip), vehicle: saline + alcohol) 102 % of control; (endpoint: median survival time, dose: 128.0 mg/kg/injection, schedule: Q01DX005 (ip), vehicle: saline + alcohol) 105 % of control.
Consider `CC1CN1C(=O)NCCCCCCNC(=O)N1CC1C` (stereo not given), for which the T/C reads like this: (endpoint: median survival time, dose: 1.25 mg/kg/injection, schedule: Q01DX009 (ip), vehicle: Klucel (hydroxypropylcellulose) (HPC)) 103 % of control; (endpoint: median survival time, dose: 2.5 mg/kg/injection, schedule: Q01DX009 (ip), vehicle: Klucel (hydroxypropylcellulose) (HPC)) 102 % of control; (endpoint: median survival time, dose: 5.0 mg/kg/injection, schedule: Q01DX009 (ip), vehicle: Klucel (hydroxypropylcellulose) (HPC)) 112 % of control; (endpoint: median survival time, dose: 10.0 mg/kg/injection, schedule: Q01DX009 (ip), vehicle: Klucel (hydroxypropylcellulose) (HPC)) 120 % of control; (endpoint: median survival time, dose: 20.0 mg/kg/injection, schedule: Q01DX009 (ip), vehicle: Klucel (hydroxypropylcellulose) (HPC)) 120 % of control.
